Results as given in patent US20030082511A1, “Identification of modulatory molecules using inducible promoters” (priority 2001, published 2003).

Columns and labels:
[1] = biological target: T1, HERG potassium ion channel (Homo sapiens, UniProt Q12809); experiment: Membrane potential assay (Disbac5Me4/Disbac3Me4 fluorescence) in inducible HERG TREX/CHO clone 5J; type: cell-based; details: FIG. 8
T1 construct: expressed in transfected cells; host or cells: T-REx CHO cells, clone 5J
Protocol: The HERG positive TREX/CHO clone 5J was plated at 3×10^6 cells in replicate 10 cm tissue culture dishes. After 24 hours one dish was treated with […] doxycycline to induce HERG expression. After 24 hours induction, both induced and uninduced cells were harvested with trypsin, counted and adjusted to the same cell density in hybridoma media (Sigma). A solution of 1×10^5 cells/ml and 0.4 μM each Disbac5Me4 and Disbac3Me4 in hybridoma media was stirred in a cuvette in a JY-Spex fluorometer. Fluorescence intensity from 540 excitation and 690 emission was followed over time. The extracellular potassium chloride was adjusted to 100 mM with 3N KCl at the indicated time. 25 nM pimozide was then added at the indicated time.

[2] = biological target: T2, mouse potassium voltage-gated channel KCNC1 (Mus musculus, UniProt P15388); experiment: Membrane potential assay (Disbac5Me4/Disbac3Me4 fluorescence) in tetracycline-inducible KCNC1 TREX/CHO cells; type: cell-based; details: for response to KCl addition / depolarization with KCl (membrane potential dye fluorescence): induced KCNC1 CHO cells pre-incubated with BaCl2 30 mM at least 30 minutes; for depolarization (change in fluorescence intensity of the indicator dye) on addition of potassium chloride: KCl added in 50 mM steps, induced vs non-induced KCNC1 CHO cells, FIG. 4
T2 construct: The 2 kb KCNC1 gene fragment and the pcDNA4/Tob vector were gel purified, ligated; host or cells: T-REx CHO cells
T2 sequence (P15388 1-585 isoform P15388-3): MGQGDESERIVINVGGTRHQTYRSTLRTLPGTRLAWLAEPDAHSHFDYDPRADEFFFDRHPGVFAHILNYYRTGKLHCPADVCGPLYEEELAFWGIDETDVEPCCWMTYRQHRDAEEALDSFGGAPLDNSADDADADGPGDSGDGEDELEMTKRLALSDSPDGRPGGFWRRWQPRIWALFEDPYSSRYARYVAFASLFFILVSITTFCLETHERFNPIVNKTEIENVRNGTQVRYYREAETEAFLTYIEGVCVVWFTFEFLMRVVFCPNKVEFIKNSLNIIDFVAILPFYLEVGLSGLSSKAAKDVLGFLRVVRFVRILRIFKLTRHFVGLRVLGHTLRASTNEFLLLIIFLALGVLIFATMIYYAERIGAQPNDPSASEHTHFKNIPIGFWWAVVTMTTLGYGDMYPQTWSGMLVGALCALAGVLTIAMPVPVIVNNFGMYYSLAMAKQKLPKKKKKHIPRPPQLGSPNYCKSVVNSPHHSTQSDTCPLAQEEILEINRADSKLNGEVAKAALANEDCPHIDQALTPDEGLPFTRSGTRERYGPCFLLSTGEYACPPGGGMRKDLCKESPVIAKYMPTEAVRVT
Protocol: In this example, fluorescent dyes are used to assay for changes in membrane potential, essentially as described in Example 4.
A KCNC1 positive TREX/CHO clone was plated at 3×10^6 cells in replicate 10 cm tissue culture dishes. After 24 hours one dish was treated with 10 μg/mL deoxycycline to induce KCNC1 expression. After a 24 hour induction period, both induced and uninduced cells were harvested with trypsin, counted, and adjusted to equal cell densities in hybridoma media (Sigma, St. Louis, Mo.). A solution of 3.3×10^5 cells and 0.4 μM of each Disbac5Me4 and Disbac3Me4 in hybridoma media was stirred in a cuvette in a JY-Fluormax-2 fluorometer (JY, Edison N.J.). Fluorescence intensity from 540 nm excitation and 690 nm emission was measured over time. The extracellular potassium chloride level was adjusted to 50 mM, 10 mM, and 150 mM with 3 N KCl at the indicated times. Each cell population was tested in triplicate and the mean and standard error (SE) were determined.
4-aminopyridine is a known specific inhibitor of Kv3.1b (Grissmer et al., Molec. Pharmacol. 45:1227-1234, 1994; Kirsch and Drewe, Jour. Gen. Physiol. 102:797-816, 1993; Grissmer et al. Jour. Biol. Chem. 267:20971-20979, 1992), the human homologue of KCNC1. […] Pre-incubation with 30 mM KCl had no effect, ruling out the possibility that effects of BaCl2 resulted from simply changing the ionic strength of the extracellular medium (data not shown). Each cell population was tested in triplicate. The mean and SE are shown in the FIG. 5 (aminopyridine) and FIG. 6 (BaCl2).

T1 sequence (Q12809 whole entry): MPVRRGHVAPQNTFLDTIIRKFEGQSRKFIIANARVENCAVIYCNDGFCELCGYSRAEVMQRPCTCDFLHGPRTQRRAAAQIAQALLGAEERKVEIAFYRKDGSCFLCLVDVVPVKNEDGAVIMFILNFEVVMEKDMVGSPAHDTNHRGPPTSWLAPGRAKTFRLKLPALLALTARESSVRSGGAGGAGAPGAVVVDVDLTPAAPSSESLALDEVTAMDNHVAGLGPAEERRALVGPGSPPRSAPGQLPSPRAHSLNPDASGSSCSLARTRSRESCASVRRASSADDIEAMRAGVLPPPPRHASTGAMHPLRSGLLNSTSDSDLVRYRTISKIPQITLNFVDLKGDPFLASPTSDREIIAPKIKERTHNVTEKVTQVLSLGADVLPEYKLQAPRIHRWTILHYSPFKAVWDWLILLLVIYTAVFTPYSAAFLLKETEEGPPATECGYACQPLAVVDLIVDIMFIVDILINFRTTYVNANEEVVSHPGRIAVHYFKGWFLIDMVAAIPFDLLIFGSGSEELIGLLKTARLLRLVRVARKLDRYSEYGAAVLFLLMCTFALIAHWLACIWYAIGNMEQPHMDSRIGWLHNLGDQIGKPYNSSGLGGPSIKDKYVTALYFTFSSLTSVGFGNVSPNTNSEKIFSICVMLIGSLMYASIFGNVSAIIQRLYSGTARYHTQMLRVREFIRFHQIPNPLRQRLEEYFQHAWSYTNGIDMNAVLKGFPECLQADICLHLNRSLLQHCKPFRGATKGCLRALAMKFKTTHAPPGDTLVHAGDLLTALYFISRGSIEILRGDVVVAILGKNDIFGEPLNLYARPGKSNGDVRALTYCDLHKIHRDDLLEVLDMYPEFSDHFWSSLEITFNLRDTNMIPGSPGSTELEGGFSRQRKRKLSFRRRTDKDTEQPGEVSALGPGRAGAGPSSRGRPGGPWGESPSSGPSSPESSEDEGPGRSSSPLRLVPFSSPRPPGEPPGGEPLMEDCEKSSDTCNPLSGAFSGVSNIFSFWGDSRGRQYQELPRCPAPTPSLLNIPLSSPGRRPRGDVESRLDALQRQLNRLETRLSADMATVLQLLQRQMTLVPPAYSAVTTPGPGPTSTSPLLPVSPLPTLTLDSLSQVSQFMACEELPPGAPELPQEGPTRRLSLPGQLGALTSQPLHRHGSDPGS

SMILES: O=c1[nH]c2ccccc2n1C1CCN(CCCC(c2ccc(F)cc2)c2ccc(F)cc2)CC1 [pimozide]
- sensitivity of membrane potential to pimozide ([1]; 25 nM pimozide added after 100 mM KCl, induced vs uninduced cells): more sensitive

SMILES: [Ba+2].[Cl-].[Cl-] [BaCl2]
- resting potential ([2]; KCNC1 CHO cells pre-incubated with BaCl2 30 mM at least 30 minutes, FIG. 6): less polarized resting potential
- response to KCl addition / depolarization with KCl (membrane potential dye fluorescence) ([2]; FIG. 6): ameliorated the response to KCl addition
- response to KCl addition / depolarization with KCl (membrane potential dye fluorescence) ([2]; FIG. 6, listed as BaCI2): decreased response to depolarization with KCl
- characteristics of cells induced to overexpress KCNC1 compared with uninduced cells ([2]; pre-incubated with BaCl2 (30 mM), FIG. 6): show characteristics more similar to uninduced cells

SMILES: [Cl-].[K+] [KCl, potassium chloride]
- depolarization (change in fluorescence intensity of the indicator dye) on addition of potassium chloride [2]: show a response
- depolarization (change in fluorescence intensity of the indicator dye) on addition of potassium chloride ([2]; listed as potassium chloride): depolarization of the an induced population of cells in comparison to a non-induced cell population
- effect of pre-incubation on membrane potential response (ionic strength control) ([2]; pre-incubation with 30 mM KCl, data not shown): no effect
- depolarization on addition of potassium chloride ([1]; 100 mM KCl, induced HERG expressing vs uninduced cells): depolarizes the HERG expressing cells to a greater extent than the uninduced cells

SMILES: Nc1ccncc1 [4-aminopyridine]
- response to KCl addition (membrane potential dye fluorescence) ([2]; induced KCNC1 CHO cells pre-incubated with 4-aminopyridine 900 μM at least 30 minutes, FIG. 5): lessened the response to KCl addition
- characteristics of cells induced to overexpress KCNC1 compared with uninduced cells ([2]; pre-incubated with 4-aminopyridine (900 μM), FIG. 5): show characteristics more similar to uninduced cells
